#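 Exposure lasted 48 hours, with cells grown in 96-well plates and compounds tested at five concentrations. TGI is the concentration that stops growth completely.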
# How the values were obtained:
# Experiment in all cases: NCI tumour cell line growth inhibition, 48 h
# HT29 colon = test system: HT29 colon
# A549 NSCLC = test system: A549 NSCLC
# DU-145 prostate = test system: DU-145 prostate
# CCRF-CEM leukemia = test system: CCRF-CEM leukemia
# UO-31 renal = test system: UO-31 renal
# SF-295 CNS = test system: SF-295 CNS
# BT-549 breast = test system: BT-549 breast
# ACHN renal = test system: ACHN renal
# MDA-MB-435 = test system: MDA-MB-435
# A498 renal = test system: A498 renal
# PC-3 prostate = test system: PC-3 prostate
# HOP-92 NSCLC = test system: HOP-92 NSCLC
# SK-MEL-2 melanoma = test system: SK-MEL-2 melanoma
# 786-0 renal = test system: 786-0 renal
# NCI-H460 lung = test system: NCI-H460 lung
# K-562 leukemia = test system: K-562 leukemia
# SK-OV-3 ovarian = test system: SK-OV-3 ovarian
# HCT-116 colon = test system: HCT-116 colon
# RXF 393 renal = test system: RXF 393 renal
SMILES,TGI (HT29 colon),TGI (A549 NSCLC),TGI (DU-145 prostate),TGI (CCRF-CEM leukemia),TGI (UO-31 renal),TGI (SF-295 CNS),TGI (BT-549 breast),TGI (ACHN renal),TGI (MDA-MB-435),TGI (A498 renal),TGI (PC-3 prostate),TGI (HOP-92 NSCLC),TGI (SK-MEL-2 melanoma),TGI (786-0 renal),TGI (NCI-H460 lung),TGI (K-562 leukemia),TGI (SK-OV-3 ovarian),TGI (HCT-116 colon),TGI (RXF 393 renal)
Cc1cc(C)nc(NS(=O)(=O)c2ccc(Nc3c4ccccc4nc4c(C(=O)NC(CO)(CO)CO)cccc34)cc2)n1,70.8 µM,73.2 µM,> 100 µM,58.9 µM,> 100 µM,> 100 µM,44.2 µM,> 100 µM,51.6 µM,> 100 µM,> 100 µM,> 100 µM,44.4 µM,> 100 µM,35.3 µM,> 100 µM,> 100 µM,–,–
O=C1C2CCCCC2C(=O)N1n1c(-c2ccccc2)n[nH]c1=O (centres undefined),> 100 µM,> 100 µM,–,> 100 µM,> 100 µM,> 100 µM,> 100 µM,> 100 µM,> 100 µM,> 100 µM,> 100 µM,> 100 µM,> 100 µM,> 100 µM,> 100 µM,> 100 µM,> 100 µM,> 100 µM,> 100 µM
O=[N+]([O-])c1ccc(N/N=C2/CC3=C2CCCCCCCCCC3)c([N+](=O)[O-])c1,> 100 µM,> 100 µM,> 100 µM,> 100 µM,> 100 µM,> 100 µM,> 100 µM,> 100 µM,> 100 µM,> 100 µM,> 100 µM,–,> 100 µM,> 100 µM,> 100 µM,> 100 µM,> 100 µM,> 100 µM,> 100 µM
CC(O)CN1c2ccccc2Sc2ccccc21 (centres undefined),> 100 µM,> 100 µM,> 100 µM,> 100 µM,> 100 µM,> 100 µM,> 100 µM,> 100 µM,> 100 µM,> 100 µM,> 100 µM,> 100 µM,–,> 100 µM,> 100 µM,> 100 µM,> 100 µM,> 100 µM,> 100 µM
COc1cc2c(c(O)c1OC)C(=O)[C@@H]1CCC(=O)N1C2c1ccccc1 (some centres undefined),> 100 µM,> 100 µM,> 100 µM,> 100 µM,> 100 µM,> 100 µM,> 100 µM,> 100 µM,> 100 µM,> 100 µM,> 100 µM,–,> 100 µM,> 100 µM,> 100 µM,> 100 µM,> 100 µM,> 100 µM,–
Cc1c2c(nc3ccccc13)C(=O)c1cccnc1C2=O,54.2 µM,21.7 µM,> 100 µM,> 100 µM,> 100 µM,97.1 µM,> 100 µM,> 100 µM,3.2 µM,–,73.1 µM,> 100 µM,–,> 100 µM,13.1 µM,> 100 µM,> 100 µM,18.8 µM,> 100 µM
O=C(O)C1(Cc2ccccc2)Cc2cc3c(cc2C1)CCC3,> 100 µM,> 100 µM,> 100 µM,> 100 µM,> 100 µM,> 100 µM,> 100 µM,> 100 µM,> 100 µM,–,> 100 µM,94 µM,> 100 µM,> 100 µM,> 100 µM,> 100 µM,> 100 µM,> 100 µM,> 100 µM
COc1ccc2[nH]c3c(c2c1)CC(=O)N1CCCC(CC3O)C1 (centres undefined),> 100 µM,> 100 µM,> 100 µM,–,> 100 µM,> 100 µM,> 100 µM,> 100 µM,> 100 µM,> 100 µM,> 100 µM,> 100 µM,> 100 µM,> 100 µM,> 100 µM,> 100 µM,> 100 µM,> 100 µM,–
O=C(NNC1=NCCCN1)c1ccco1,> 100 µM,> 100 µM,> 100 µM,> 100 µM,> 100 µM,> 100 µM,> 100 µM,> 100 µM,> 100 µM,–,> 100 µM,> 100 µM,> 100 µM,> 100 µM,> 100 µM,> 100 µM,> 100 µM,> 100 µM,> 100 µM
CCOC(=O)CC[C@H](NC(=O)N[C@H](C)c1ccccc1)C(=O)OCC,> 100 µM,> 100 µM,> 100 µM,54.2 µM,> 100 µM,> 100 µM,> 100 µM,> 100 µM,69.1 µM,> 100 µM,> 100 µM,39.3 µM,52.8 µM,> 100 µM,> 100 µM,> 100 µM,> 100 µM,> 100 µM,–
CC(=O)OCC1OC(c2c(OC(C)=O)cc(C)c3c(=O)cc(/C(C(C)=O)=C(\C)O)oc23)C(OC(C)=O)C(OC(C)=O)C1OC(C)=O (centres undefined),> 100 µM,> 100 µM,> 100 µM,> 100 µM,> 100 µM,> 100 µM,> 100 µM,> 100 µM,> 100 µM,–,> 100 µM,> 100 µM,> 100 µM,> 100 µM,> 100 µM,> 100 µM,> 100 µM,> 100 µM,> 100 µM
O=c1cc(NNCc2ccccc2)[nH]c(=O)[nH]1,> 100 µM,> 100 µM,> 100 µM,> 100 µM,> 100 µM,> 100 µM,> 100 µM,> 100 µM,> 100 µM,> 100 µM,> 100 µM,> 100 µM,–,> 100 µM,> 100 µM,> 100 µM,–,–,> 100 µM
CC(C)CCNC(=O)C(CC(C)C)NC(=O)[C@H]1O[C@@H]1C(=O)O (some centres undefined),> 100 µM,> 100 µM,> 100 µM,> 100 µM,> 100 µM,> 100 µM,> 100 µM,–,> 100 µM,> 100 µM,> 100 µM,> 100 µM,–,> 100 µM,> 100 µM,> 100 µM,> 100 µM,> 100 µM,–
CSc1nn(C)cc2ncnc1-2,> 100 µM,> 100 µM,> 100 µM,> 100 µM,> 100 µM,> 100 µM,> 100 µM,> 100 µM,> 100 µM,> 100 µM,> 100 µM,–,> 100 µM,> 100 µM,> 100 µM,> 100 µM,–,> 100 µM,> 100 µM
CCOC(=O)c1ccc(C(=O)n2ccnc2)[nH]1,–,> 100 µM,> 100 µM,> 100 µM,> 100 µM,> 100 µM,> 100 µM,> 100 µM,> 100 µM,> 100 µM,> 100 µM,–,> 100 µM,> 100 µM,> 100 µM,> 100 µM,–,> 100 µM,> 100 µM
O=c1[nH]c(N/N=C\C(=N/Nc2nc3ccccc3c(=O)[nH]2)C(O)C(O)C(O)CO)nc2ccccc12 (centres undefined),> 100 µM,> 100 µM,> 100 µM,> 100 µM,> 100 µM,> 100 µM,> 100 µM,> 100 µM,> 100 µM,> 100 µM,> 100 µM,> 100 µM,> 100 µM,> 100 µM,> 100 µM,> 100 µM,> 100 µM,> 100 µM,–
C/C(N)=C/C(=O)c1[nH]c(C(=O)O)cc1C1CCN(Cc2ccccc2)C1=O (centres undefined),> 100 µM,> 100 µM,84.3 µM,–,75.2 µM,49.6 µM,74.6 µM,> 100 µM,> 100 µM,> 100 µM,> 100 µM,55 µM,77.6 µM,85 µM,> 100 µM,59 µM,71.3 µM,63.8 µM,45.2 µM
COc1cc2cc(C(=O)N3CC(CCl)c4ccc([N+](=O)[O-])cc43)[nH]c2c(OC)c1OC (centres undefined),36.7 µM,> 100 µM,> 100 µM,> 100 µM,> 100 µM,> 100 µM,> 100 µM,> 100 µM,> 100 µM,> 100 µM,> 100 µM,> 100 µM,> 100 µM,> 100 µM,–,> 100 µM,–,> 100 µM,> 100 µM
Cc1ccc(Cc2nn(C)c(=O)n2N)cc1,> 100 µM,> 100 µM,> 100 µM,–,> 100 µM,> 100 µM,> 100 µM,> 100 µM,> 100 µM,> 100 µM,> 100 µM,> 100 µM,> 100 µM,> 100 µM,> 100 µM,> 100 µM,> 100 µM,> 100 µM,–
O=[N+]([O-])c1cccc(-c2ncc3c(n2)-c2ccccc2C3)c1,> 100 µM,> 100 µM,> 100 µM,> 100 µM,> 100 µM,> 100 µM,> 100 µM,> 100 µM,> 100 µM,–,> 100 µM,> 100 µM,> 100 µM,> 100 µM,> 100 µM,> 100 µM,> 100 µM,> 100 µM,> 100 µM
C=C(C)[C@@H]1CCC2=C[C@H](C/C(C)=C\C3=CC(C)=C(O3)[C@H]1O)OC2=O,–,> 100 µM,> 100 µM,> 100 µM,> 100 µM,> 100 µM,> 100 µM,> 100 µM,> 100 µM,> 100 µM,> 100 µM,> 100 µM,> 100 µM,> 100 µM,> 100 µM,> 100 µM,–,–,> 100 µM
Oc1[nH]c(=S)[nH]c1/C=C1/C(c2ccccc2)=Nc2ccccc21,30.5 µM,–,–,–,21.4 µM,26.5 µM,28.6 µM,78 µM,26.7 µM,25.3 µM,25.6 µM,–,26 µM,28.4 µM,27.6 µM,33.7 µM,–,27.5 µM,28.7 µM
CCC1(CC)C(=O)N(C(=O)c2ccccc2)N(C(=O)c2ccc(Cl)cc2)C1=O,> 75 µM,> 75 µM,> 75 µM,51.3 µM,> 75 µM,> 75 µM,> 75 µM,> 75 µM,> 75 µM,–,> 75 µM,–,> 75 µM,> 75 µM,> 75 µM,> 75 µM,> 75 µM,> 75 µM,> 75 µM
CCOC(=O)C1(C/C=C/CCl)CCCC1=O (centres undefined),68.4 µM,49.4 µM,> 100 µM,> 100 µM,39.7 µM,> 100 µM,40.8 µM,36.6 µM,44 µM,> 100 µM,> 100 µM,–,59 µM,49.4 µM,> 100 µM,–,> 100 µM,34.9 µM,32.7 µM
O=C(NCCC1CN(C(=O)OCc2ccccc2)c2ccccc21)OCc1ccccc1 (centres undefined),> 100 µM,> 100 µM,> 100 µM,–,> 100 µM,> 100 µM,> 100 µM,> 100 µM,> 100 µM,> 100 µM,> 100 µM,> 100 µM,> 100 µM,> 100 µM,> 100 µM,> 100 µM,> 100 µM,> 100 µM,> 100 µM
CC(=O)Nc1ccc(C(=O)NN2C(=O)CSC2c2ccc(O)cc2)cc1 (centres undefined),> 100 µM,> 100 µM,> 100 µM,> 100 µM,> 100 µM,> 100 µM,> 100 µM,> 100 µM,> 100 µM,> 100 µM,–,> 100 µM,> 100 µM,> 100 µM,> 100 µM,> 100 µM,> 100 µM,> 100 µM,> 100 µM
COc1ccc2c(=O)cc(-c3ccc(OC)c(OC)c3OC)oc2c1,> 100 µM,> 31.6 µM,> 100 µM,> 31.6 µM,> 100 µM,> 100 µM,> 100 µM,> 100 µM,> 100 µM,–,> 100 µM,> 100 µM,–,> 100 µM,> 100 µM,> 100 µM,> 100 µM,> 100 µM,> 100 µM

# From PubChem BioAssay (NCI)
